Assay results as given in ChEMBL document CHEMBL5252629, “The protein disulfide isomerase inhibitor 3-methyltoxoflavin inhibits Chikungunya virus” (Bioorg Med Chem, 2023).
≈ marks a conversion by molar mass, not a printed value.

Legend:
[1] = test system: Chikungunya virus; assay: Antiviral activity against CHIKV infected in human foreskin fibroblast cells; type: functional, organism-based
[2] = test system: Chikungunya virus; assay: Antiviral activity against CHIKV infected in hamster BHK-21 cells assessed as inhibition of viral replication at 20 uM measured after 48 hrs by renilla luciferase assay relative to control; type: functional; set-up: scale not given: the % may be the effect or the level left
[3] = test system: Chikungunya virus; assay: Antiviral activity against CHIKV infected in hamster BHK-21 cells; type: functional, organism-based
[4] = Kinetic solubility of the compound in FaSSGF at pH 1.2 by LCMS analysis; type: ADME; conditions: read-out: Kinetic_solubility
[5] = Kinetic solubility of the compound in FaSSIF at pH 6.8 by LCMS analysis; type: ADME; conditions: read-out: Kinetic_solubility
[6] = Kinetic solubility of the compound in buffer at pH 7.4 by LCMS analysis; type: physicochemical; conditions: read-out: Kinetic_solubility
[7] = Metabolic stability in mouse liver microsomes assessed as intrinsic clearance at 100 uM preincubated for 5 mins followed by NADPH addition and measured upto 60 mins by LCMS analysis; type: ADME, Microsome; conditions: time < 65 min, read-out: CLH
[8] = Metabolic stability in human liver microsomes assessed as hepatic clearance preincubated for 5 mins followed by NADPH addition and measured after 20 mins by LCMS analysis; type: ADME, Microsome; conditions: time 25 min
[9] = Apparent permeability of the compound across apical side to basolateral side in human Caco-2 cells; type: ADME, cell-based
[10] = Apparent permeability of the compound across apical side to basolateral side in human Caco-2 cells assessed as drug recovery; type: ADME, cell-based
[11] = Apparent permeability of the compound across basolateral side to apical side in human Caco-2 cells assessed as drug recovery; type: ADME, cell-based
[12] = test system: Chikungunya virus; assay: Antiviral activity against CHIKV S27 infected in Huh-7 cells assessed as reduction in cytopathic effect; type: functional, organism-based; conditions: S27, Huh-7
[13] = test system: Huh-7; assay: Cytotoxicity against human Huh-7 cells assessed as reduction in cell viability measured after 48 hrs by MTT assay; type: functional
[14] = Selectivity index, ratio of CC50 for human Huh-7 cells to EC50 for CHIKV S27 infected in Huh-7 cells; type: toxicity, cell-based; conditions: read-out: Ratio CC50/EC50
[15] = test system: Chikungunya virus; assay: Antiviral activity against CHIKV S27 infected in Huh-7 cells assessed as reduction in cytopathic effect by neutral red staining based analysis; type: functional, organism-based; conditions: S27, Huh-7
[16] = test system: Huh-7; assay: Cytotoxicity against human Huh-7 cells assessed as reduction in cell viability incubated for 48 hrs by MTT assay; type: functional
[17] = Selectivity index, ratio of CC50 for human Huh-7 cells to EC50 for CHIKV S27 infected in Huh-7 cells assessed as reduction in cytopathic effect by neutral red staining based analysis; type: toxicity, cell-based; conditions: read-out: Ratio CC50/EC50
[18] = test system: Chikungunya virus; assay: Antiviral activity against CHIKV S27 infected in Vero 76 cells assessed as reduction in cytopathic effect; type: functional; conditions: S27, Vero 76
[19] = test system: Vero 76; assay: Cytotoxicity against African green monkey Vero 76 cells assessed as reduction in cell viability incubated for 48 hrs by MTT assay; type: toxicity, cell-based; conditions: chlorocebus sabaeus, vero 76, 48 h
[20] = test system: Chikungunya virus; assay: Antiviral activity against CHIKV S27 infected in Vero 76 cells assessed as reduction in cytopathic effect by neutral red staining based analysis; type: functional, organism-based; conditions: S27, Vero 76
[21] = test system: Yellow fever virus; assay: Antiviral activity against Yellow fever virus 17D infected in Huh-7 cells assessed as reduction in cytopathic effect; type: functional, organism-based
[22] = test system: Huh-7; assay: Cytotoxicity against human Huh-7 cells infected with yellow fever virus assessed as reduction in cell viability incubated for 48 hrs by MTT assay; type: functional
[23] = Selectivity index, ratio of CC50 for human Huh-7 cells to EC50 for Yellow fever virus 17D; type: toxicity; conditions: read-out: Ratio CC50/EC50
[24] = test system: Yellow fever virus; assay: Antiviral activity against Yellow fever virus 17D infected in Huh-7 cells assessed as reduction in cytopathic effect by neutral red staining based analysis; type: functional, organism-based
[25] = Selectivity index, ratio of CC50 for human Huh-7 cells to EC50 for Yellow fever virus 17D assessed as reduction in cytopathic effect by neutral red staining based analysis; type: toxicity; conditions: read-out: Ratio CC50/EC50
[26] = test system: Chikungunya virus; assay: Antiviral activity against CHIKV infected in hamster BHK-21 cells assessed as inhibition of viral replication measured after 48 hrs by gaussia luciferase assay; type: functional, organism-based; conditions: BHK-21, 48 h
[27] = test system: BHK-21; assay: (§1) Cytotoxicity against hamster BHK-21 cells assessed as reduction in cell viability measured after 48 hrs by MTT assay; type: toxicity, cell-based, Mesocricetus auratus; conditions: bhk-21, 48 h
[28] = Selectivity index, ratio of CC50 for hamster BHK-21 cells to EC50 for CHIKV infected in hamster BHK-21 cells; type: toxicity, cell-based; conditions: read-out: Ratio CC50/EC50
[29] = test system: HepG2; assay: Cytotoxicity against human HepG2 cells assessed as reduction in cell viability measured after 48 hrs by MTT assay; type: functional
[30] = Inhibition of N-terminal His-tagged human PDI expressed in Escherichia coli BL21 (DE3) incubated for 1 hr
[31] = test system: Chikungunya virus; assay: Antiviral activity against CHIKV-ZsGreen infected in African green monkey Vero incubated for 24 hrs by flow cytometry analysis; type: functional, organism-based
[32] = test system: Chikungunya virus; assay: Antiviral activity against CHIKV infected in African green monkey Vero cells; type: functional, organism-based
[33] = as §1; type: toxicity, cell-based, Mesocricetus auratus; conditions: BHK-21 cells
[34] = test system: Chikungunya virus; assay: Antiviral activity against CHIKV infected in […] Huh-7 cells; type: functional, organism-based

`O=C(O)c1nc(=O)[nH]c2ccccc12` gave an IC50 [1] of 23000 nM.

Work on `OCc1ccccc1O[C@@H]1O[C@H](CO)[C@@H](O)[C@H](O)[C@H]1O` [SALICIN] yielded an Activity [2] of 100%.

In the case of `CCC(C)n1ncn(-c2ccc(N3CCN(c4ccc(OCC5COC(Cn6cncn6)(c6ccc(Cl)cc6Cl)O5)cc4)CC3)cc2)c1=O` (stereo not drawn) [ITRACONAZOLE], the EC50 [3] is reported as 320 nM.

`Clc1ccc2c(N3CCN(CCCN4CCN(c5ccnc6cc(Cl)ccc56)CC4)CC3)ccnc2c1` [PIPERAQUINE] showed an Activity [2] of 138.1%.

`COc1c(O)cc2c(c1O)[C@@H]1O[C@H](CO)[C@@H](O)[C@H](O)[C@H]1OC2=O` [BERGENIN] gave an Activity [2] of 100%.

With `Cc1nc2c(=O)n(C)c(=O)nc-2n(C)n1` the Activity [2] was 2%, the solubility kinetic [4] was 424 µM (≈ 87.7 µg/mL) and the solubility kinetic [5] was 228 µM (≈ 47.1 µg/mL). It also gave a solubility kinetic [6] of 400 µM (≈ 82.8 µg/mL), a microsomal CLint at 100 µM [7] of 7.4 µL/min/mg and a CLhep predicted [8] of less than 6.1 mL/min/kg. For the same compound, the Papp [9] was 17.8 10^-6 cm/s, the Drug recovery [10] was 103% and the Drug recovery [11] was 93.5%. It also gave an EC50 [12] of 190 nM, a CC50 [13] of 3200 nM and a selectivity ratio [14] of 17. The EC50 [15] was less than 100 nM, the CC50 [16] was 1100 nM and the selectivity ratio [17] was greater than 11. For the same compound, the EC90 [18] was greater than 1700 nM, the CC50 [19] was 1700 nM and the EC50 [20] was greater than 1700 nM. For the same compound, the EC50 [21] was 370 nM, the CC50 [22] was 1200 nM and the selectivity ratio [23] was 3.2. The EC50 [24] was 420 nM, the selectivity ratio [25] was 2.9 and the EC50 [26] was 200 nM. For the same compound, the CC50 [27] was 6200 nM, the selectivity ratio [28] was 30.8 and the CC50 [29] was 11000 nM. It also gave an IC50 [30] of 170 nM.

With `COc1ccc(C(=O)/C=C/c2ccc(O)cc2)c(O)c1CC=C(C)C` the Activity [2] was 13.5%.

Work on `CN(C)CCCN1c2ccccc2Sc2ccccc21` [PROMAZINE] yielded an Activity [2] of 18%.

With `CCCCCCCCCCC[C@@H](C[C@@H]1OC(=O)[C@H]1CCCCCC)OC(=O)[C@H](CC(C)C)NC=O` [ORLISTAT] the Activity [2] was 48.7%.

For `O=C(C1CC1)N1CCN(Cn2sc3ccccc3c2=O)CC1`, the Activity [2] was 14%.

For `CC(=O)c1ccc(S(=O)(=O)NC(=O)NC2CCCCC2)cc1` [ACETOHEXAMIDE], the Activity [2] was 100%.

In the case of `CC(C)n1ncc2c1N=C(O)CC2c1ccc(-c2ccc(C(=O)O)cc2)o1` (stereo not drawn), the Activity [2] is reported as 100%.

Compound `OC(CNC1CCN(Cc2ccccc2)CC1)COc1ccccc1` (stereo not drawn) has an EC50 [31] of 1600 nM.

Compound `NC(=O)C1CCN(c2nc3c(c(=O)[nH]2)C(C(=O)Nc2ccccc2Cl)CC(=O)N3)CC1` (stereo not drawn) has an Activity [2] of 140%.

Work on `CCN(CC)Cc1cc(Nc2ccnc3cc(Cl)ccc23)ccc1O` [AMODIAQUINE] yielded an Activity [2] of 19%.

For `O=C(CCCN1CCC(O)(c2ccc(Cl)cc2)CC1)c1ccc(F)cc1` [HALOPERIDOL], the Activity [2] was 40.5%.

In the case of `CN1[C@@H]2CC[C@H]1C[C@@H](OC(=O)C(CO)c1ccccc1)C2` (stereo partly drawn) [ATROPINE], the Activity [2] is reported as 149.2%.

For `CCN(CC)CCOc1ccc2c(c1)C(=O)c1cc(OCCN(CC)CC)ccc1-2` [TILORONE], the Activity [2] was 100% and the EC50 [32] was 4200 nM.

For `C[C@@H]1C[C@H]2[C@@H]3CCC4=CC(=O)C=C[C@]4(C)[C@@]3(F)[C@@H](O)C[C@]2(C)[C@@]1(O)C(=O)CO` [DEXAMETHASONE], the Activity [2] was 70.9%.

`C=CCc1ccc(OC)cc1` [ESTRAGOLE] gave an Activity [2] of 100%.

`CCN(CC)CCCC(C)Nc1c2ccc(Cl)cc2nc2ccc(OC)cc12` (stereo not drawn) [QUINACRINE] gave an Activity [2] of 12.5%, an EC50 [26] of 12000 nM and a CC50 at 48 h [33] of 19800 nM. For the same compound, the selectivity ratio [28] was 1.6.

Work on `Cc1nnc(C(=O)NC(C)(C)c2nc(C(=O)NCc3ccc(F)cc3)c(O)c(=O)n2C)o1` [RALTEGRAVIR] yielded an Activity [2] of 58.9%.

`O=C(O)c1ccc(S(=O)(=O)Nc2ccc(S(=O)(=O)Nc3ccccn3)cc2)cc1` gave an Activity [2] of 100%.

`CCCCCc1c2c(cc(O)c1C(=O)O)OC(=O)c1c(cc(OC)cc1C(=O)CCCC)O2` [LOBARIC ACID] gave an EC50 [34] of 5300 nM.

With `C=CCN1CC[C@]23c4c5ccc(O)c4O[C@H]2C(=O)CC[C@@]3(O)[C@H]1C5` [NALOXONE] the Activity [2] was 121.5%.

`OCCN1CCN(CCCN2c3ccccc3Sc3ccc(C(F)(F)F)cc32)CC1` [FLUPHENAZINE] gave an Activity [2] of 11.6%.

For `Cc1cc([N+](=O)[O-])ccc1-c1ccc(C2N=C(O)c3c(sc4c3CCN(C)C4)N2)o1` (stereo not drawn), the Activity [2] was 100%.

With `O=C1CC(c2ccc(S(=O)(=O)Nc3ccccc3C(=O)Nc3ccc(F)cc3)cc2)CN1` (stereo not drawn) the Activity [2] was 100%.

For `O=C1Cc2cc(CCN3CCN(c4nsc5ccccc45)CC3)c(Cl)cc2N1` [ZIPRASIDONE], the Activity [2] was 101%.

Compound `C=CCc1ccc(O)c(OC)c1` [EUGENOL] has an Activity [2] of 100%.

Work on `O=P(O)(O)C(O)(Cc1cccnc1)P(=O)(O)O` [RISEDRONIC ACID] yielded an Activity [2] of 86.7%.

With `CC(C)=CCC/C(C)=C/Cc1c(O)ccc(C(=O)/C=C/c2ccc(O)cc2)c1O` [XANTHOANGELOL] the Activity [2] was 8.4%, the EC50 [26] was 7100 nM and the CC50 at 48 h [33] was 11800 nM. It also gave a selectivity ratio [28] of 1.7.

Compound `CCCCN(CCCC)CC(O)c1cc(Cl)cc2c1-c1ccc(Cl)cc1/C2=C/c1ccc(Cl)cc1` (stereo not drawn) [LUMEFANTRINE] has an Activity [2] of 100%.

Compound `O=C1OC(CN2CCOCC2)CN1/N=C/c1ccc([N+](=O)[O-])o1` (stereo not drawn) [FURALTADONE] has an Activity [2] of 20.4%.

For `NC(=O)C1(N2CCCCC2)CCN(CCCC(=O)c2ccc(F)cc2)CC1` [PIPAMPERONE], the Activity [2] was 102.9%.

With `Cc1cc(C)nc(NS(=O)(=O)c2ccc(NC(=O)CN3C(=O)C4CC=CCC4C3=O)cc2)n1` (stereo not drawn) the Activity [2] was 100%.

With `Cc1nc(C)c(CN2CCCC(C(=O)Nc3cccc(-n4cnnn4)c3)C2)nc1C` (stereo not drawn) the Activity [2] was 100%.

`c1ccc2c(c1)Nc1ccccc1S2` [PHENOTHIAZINE] gave an Activity [2] of 73.7%.

In the case of `Cn1c(=O)[nH]c2ccc(S(=O)(=O)NCCCOC34CC5CC(CC(C5)C3)C4)cc2c1=O`, the Activity [2] is reported as 100%.
